Values after ≈ are worked out from the molar mass of the structure shown. Like-named read-outs stand apart in the source and are kept apart here.
Assays:
MRSA [1] = experiment: antibacterial activity of antibiotics alone and in the presence of apigenin (4 μg/ml), MRSA; assay type: cell-based, methicillin-resistant Staphylococcus aureus; details: for MIC50: MRSA
Procedure: (§1) The screening of the present invention may be carried out according to the agar plate dilution method designated by the Japan Society of Chemotherapy (Chemotherapy 29(1), 76-79 (1981)). Mueller-Hinton agar base semi-synthetic medium may be used for a plate culture medium for a sensitivity test together with an inoculating bacteria solution which may be prepared by culturing bacteria to be tested at 37° C. for 20 hours diluted with 8.5% by isotonic sodium chloride solution to 10^6 CFU/ml. Diluted β-lactam solutions are prepared by two times serial dilution. 1 ml of the diluted β-lactam solution and 1 ml of a predetermined concentration of a sample to be tested are added to 8 ml of the plate culture medium for a sensitivity test. To the resultant plate culture medium for sensitivity test, the bacteria are inoculated using a microplanter (SAKUMASEISAKUSYO Co.), cultured for 20 hours at 37° C. followed by assessing for a minimum inhibition concentration (MIC).
(D) Then use of 4 μg/ml of apigenin and other antibiotics at the same time was studied. The antibiotics are penicillin , ampicillin, cephalothin, cefoxitin, cefuroxime, cefotaxime, vancomycin, streptomycin, chloramphenicol, kanamycin, erythromycin, nalixic acid and tetracycline.

MRSA [2] = experiment: antibacterial activity of methicillin in the presence of flavone derivatives, MRSA; assay type: cell-based, methicillin-resistant Staphylococcus aureus
Procedure: as §1, with “To the resultant plate culture medium for sensitivity test, the bacteria are inoculated using a microplanter (SAKUMASEISAKUSYO Co.), cultured for 20 hours at 37° C. followed by assessing for a minimum inhibition concentration (MIC).” left out
(§2) Mueller-Hinton agar base semi-synthetic medium was used as a plate culture medium for the sensitivity test, and an inoculating bacteria solution was prepared by culturing bacteria to be tested at 37° C. for 20 hours and diluting with 8.5% by weight isotonic sodium chloride solution to a final concentration of 10^6 CFU/ml. […] To the resultant plate culture medium for the sensitivity test, the inoculating bacteria were inoculated using a microplanter (SAKUMASEISAKUSYO Co.), cultured for 20 hours at 37° C. and then minimum inhibition concentration (MIC) was assessed.

MSSA = experiment: antibacterial activity of methicillin in the presence of flavone derivatives, MSSA; assay type: cell-based, Methicillin-sensitive Staphylooccus aureus; details: Staphylococcus aureus, 20 h; methicillin alone; MSSA (7 strains)
Procedure: as §1, with “To the resultant plate culture medium for sensitivity test, the bacteria are inoculated using a microplanter (SAKUMASEISAKUSYO Co.), cultured for 20 hours at 37° C. followed by assessing for a minimum inhibition concentration (MIC).” left out
as §2

MRSA No. 5 [3] = experiment: effect of flavone on antibacterial activity of antibiotics against MRSA No. 5 in bouillon (broth microdilution); assay type: cell-based, methicillin-resistant Staphylococcus aureus; details: for MIC: Staphylococcus aureus, MRSA, 20 h, read-out: MIC
Procedure: Alternatively, the screening of the present invention may be carried out according to the broth microdilution method designated by the Japan Society of Chemotherapy (Chemotherapy 38(1), 102-105 (1990)). Muellar-Hinton broth is used as a culture medium for the sensitivity test, and 50 mg/ml of calcium(Ca) ion, 25 mg/ml of magnesium(Mg) ion, and 2% sodium chloride (NaCl) are added thereto. An inoculating bacteria solution may be prepared by culturing bacteria to be tested in Mueller-Hinton broth at 37° C. for 20 hours and diluting with Mueller-Hinton broth to 10^5 CFU/ml final concentration of inoculating bacteria. Diluted β-lactam solution is prepared by two times serial dilution series. 10 μl of the diluted β-lactam solution and 10 μl of a predetermined concentration of a sample of bacteria to be tested are added to mix with 80 μl of the culture medium for the sensitivity test. To the resultant plate culture medium for sensitivity test, the inoculating bacteria are added and culturing is carried out for 20 hours at 37° C. and then assessment for a minimum inhibition concentration (MIC) is carried out. A minimum inhibition concentration means the minimum concentration of β-lactam at which growth of bacteria is not recognized by the naked eye.
(G) Antibacterial activity of 6 β-lactams, that is, cephalothin, cefuroxime, cefotaxime, cefoxitin, streptomycin and vancomycin, against MRSA in the presence of 0.5 mM flavone was studied in bouillon.
Muellar-Hinton broth was used as a culture medium for the sensitivity test, and 50 mg/ml of calcium (Ca) ion, 25 mg/ml of maqnesium (Mg) ion, 2% sodium chloride (NaCl) were added thereto. An inoculating bacteria solution was prepared by culturing bacteria to be tested with Mueller-Hinton broth at 37° C. for 20 hours and diluting with Mueller-Hinton broth to 10^5 CFU/ml final concentration of inoculating bacteria. Diluted β-lactam solutions were prepared in two times serial dilutions starting from 10 mM. Ten microliters of the diluted β-lactam solution and 10 μl of 5 mM of flavone were mixed with 80 μl of the culture medium for the sensitivity test in a microplate having U-shaped wells and samples of bacteria to be tested were added thereto. The mixture was cultured 20 hours at 37° C. and then assessed for minimum inhibition concentration (MIC). Minimum inhibition concentration means minimum concentration of a β-lactum at which growth of bacteria is inhibited to the extent that bacteria is not recognized by the naked eye.

MRSA No. 5 [4] = experiment: as above; assay type: cell-based, methicillin-resistant Staphylococcus aureus; details: for MIC: Staphylococcus aureus, MRSA, 20 h, read-out: antibacterial activity of methicillin against MRSA No. 5

COc1cccc(OC)c1C(=O)N[C@@H]1C(=O)N2[C@@H]1SC(C)(C)[C@@H]2C(=O)O [Methicillin, methicillin]
MIC50 (MRSA [1]; Antibiotics alone): > 250 µg/mL | MIC50 (MRSA [1]; Antibiotics alone, listed as methicillin): 1000 µg/mL | times as potent as methicillin alone (MRSA [1]; MIC50, methicillin plus 4 μg/ml apigenin vs methicillin alone): about 700 times | MIC50 (MRSA [1]; Staphylococcus aureus, 20 h, antibiotic with Apigenin (4 μg/ml), read-out: MIC50): 15.6 µg/mL | inhibition of β-lactam resistant MRSA / improvement of antibacterial effect with apigenin (in words) (MRSA [1]; apigenin 4 μg/ml or less than its MIC): inhibited β-lactam resistant MRSA | MIC50 (MRSA [2]; Staphylococcus aureus, 20 h, methicillin alone, MRSA (20 strains)): > 250 µg/mL | antibacterial activity of methicillin on MRSA No.5 (in words) (MRSA [2]; under the presence of flavone): strong on MRSA No.5 | MIC (MSSA): 0.98 to 2 µg/mL | MIC50 (MSSA): 2 µg/mL | MIC (MRSA No. 5 [3]; Concentration of flavone 0 mM): 1000 µM (≈ 380 µg/mL) | MIC (MRSA No. 5 [3]; Concentration of flavone 0.5 mM): 15.6 µM (≈ 5.93 µg/mL) | inhibitory effect on resistance of MRSA No.5 (in words) (MRSA No. 5 [3]; in the presence of flavone 0.5 mM): showed inhibitory effect on resistance of MRSA No.5 | MIC (MRSA No. 5 [4]; Control (no flavone)): > 1000 µM | MIC (MRSA No. 5 [4]; flavone 0.11 mM (25 μg/ml)): 1000 µM (≈ 380 µg/mL) | MIC (MRSA No. 5 [4]; flavone 0.2 mM): 31.2 µM (≈ 11.9 µg/mL) | MIC (MRSA No. 5 [4]; flavone 0.23 mM (50 μg/ml)): 31.2 µM (≈ 11.9 µg/mL) | MIC (MRSA No. 5 [4]; flavone 0.5 mM): 15.6 µM (≈ 5.93 µg/mL) | antibacterial activity of methicillin against MRSA (in words) (MRSA No. 5 [4]; flavone 0.2 mM): prominently shown | antibacterial activity of methicillin against MRSA (in words) (MRSA No. 5 [4]; in proportion to increase of flavone concentration): increased
